Results on three compounds are retold here after patent US7297714B2, “Inhibitors of cathepsin S” (IRM LLC, priority 2003, dated 2007).

Holding throughout (assay type): biochemical
For one assay, the target named is Cathepsin B (Homo sapiens, UniProt P07858). As to the kind of experiment: Cathepsin B inhibition assay, selectivity for cathepsin S over cathepsin B. The following applies: ratio of cathepsin B inhibition constant to cathepsin S inhibition constant. How it is done:
(§1) The optimal substrate for cathepsin B, acetyl-histidine-proline-valine-lysine-amino carbamoyl coumarin, was identified from screening a combinatorial library of fluorogenic peptide substrates (Harris, J. L., B. J. Backes, et al., Proc Natl Acad Sci US A 2000, 97(14), 7754-9). Kinetic measurements are performed in a total reaction volume of 30 μl in 384-well microtiter plates. Cathepsin B, at a final concentration of 1.5 nM (active site), is incubated with the compounds at twelve varying concentrations in a buffer containing 100 mM NaAc (pH5.5), 1 mM EDTA, 100 mM NaCl, 0.01% Brij-35 for 20 minutes at room temperature. Control reactions in the absence of inhibitor are performed in replicates of 24. The reactions are initiated by adding the substrate, acetyl-histidine-proline-valine-lysine-amino carbamoyl coumarin, to a final concentration of 10 μM. The rate of substrate hydrolysis is measured by monitoring the increase in fluorescence at an excitation wavelength of 380 nm and an emission wavelength of 450 nm that results from cleavage of the aniline bond in the substrate by the enzyme. The apparent inhibition constants for the compounds are determined from the enzyme progress curves (Kuzmic, P., K. C. Elrod, et al., Anal Biochem 2000, 286(1), 45-50) and are then used to calculate the inhibition constants for competitive inhibitors.
(§2) Selectivity for cathepsin S in the presence of cathepsin isozymes was determined by the ratio of the cathepsin isozyme inhibition constant of a compound of the present invention to the cathepsin S inhibition constant of the same compound. Preferred compounds of the present invention selective for cathepsin S have ratios of greater than 10. More preferred compounds of the present invention selective for cathepsin S have ratios of greater than 100. Most preferred compounds of the present invention selective for cathepsin S have ratios of greater than 1000.

The target in a further assay is Cathepsin S (Homo sapiens, UniProt P25774). Put plainly: Cathepsin S inhibition assay (fluorogenic peptide substrate). The following applies: Cathepsin S inhibition constant; pH5.5; read-out: Ki Cat. S.
From the text: “Inhibition constant”, Ki, is the dissociation constant of the enzyme-inhibitor complex, or the reciprocal of the binding affinity of the inhibitor to the enzyme. For classical inhibition the value of Ki is much greater than the enzyme concentration and the Ki can be measured by monitoring the rate of reaction for a competitive substrate at multiple inhibitor concentrations. The inhibited rates are then fit by nonlinear regression to the following equation: […]
The assumption being made for the classical inhibition described above is that the free inhibitor concentration is equal to the total inhibitor concentration. For inhibitors that have Ki's that are approximately equal to the enzyme concentration [E], the assumption that the free inhibitor concentration is equal to the total inhibitor concentration is no longer valid and an alternative equation has to be fit for determination of the apparent inhibition constant, Ki^app using described methods (Kuzmic, P., K. C. Elrod, et al., Anal Biochem 2000, 286(1), 45-50):
as §1, with “cathepsin S,” for “cathepsin B,”, “Sci U S” for “Sci US”, “Cathepsin S,” for “Cathepsin B,”, “of 0.3-3” for “of 1.5”, “of 50” for “of 10”

Another assay deals with T1, Cathepsin K (Homo sapiens, UniProt P43235).
T1 sequence (P43235 115-329): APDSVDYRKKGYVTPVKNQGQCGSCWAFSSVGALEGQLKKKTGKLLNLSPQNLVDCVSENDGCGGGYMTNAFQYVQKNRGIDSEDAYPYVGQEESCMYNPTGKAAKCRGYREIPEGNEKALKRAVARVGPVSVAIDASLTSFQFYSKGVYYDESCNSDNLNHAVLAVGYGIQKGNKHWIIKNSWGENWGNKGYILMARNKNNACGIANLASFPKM
Put plainly: Cathepsin K inhibition assay, selectivity for cathepsin S over cathepsin K. The following applies: ratio of cathepsin K inhibition constant to cathepsin S inhibition constant. How it is done:
as §1, with “cathepsin K, acetyl-lysine-histidine-proline-lysine-amino” for “cathepsin B, acetyl-histidine-proline-valine-lysine-amino”, “Sci USA” for “Sci US A”, “Cathepsin K,” for “Cathepsin B,”, “of 3.5” for “of 1.5”, “substrate, acetyl-lysine-histidine-proline-lysine-amino” for “substrate, acetyl-histidine-proline-valine-lysine-amino”, “of 40” for “of 10”
as §2

In the next assay the target is Cathepsin L (Homo sapiens, UniProt P07711). Put plainly: Cathepsin L inhibition assay, selectivity for cathepsin S over cathepsin L. The following applies: ratio of cathepsin L inhibition constant to cathepsin S inhibition constant. How it is done: The optimal substrate for cathepsin L, acetyl-histidine-lysine-phenylalanine-lysine-amino carbamoyl coumarin, was identified from screening a combinatorial library of fluorogenic peptide substrates (Harris, J. L., B. J. Backes, et al.; Proc Natl Acad Sci USA 2000, 97(14), 7754-9). Kinetic measurements are performed in a total reaction volume of 30 μl in 384-well microtiter plates. Cathepsin L, at a final concentration of 0.1 nM (active site), is incubated with the compounds at twelve varying concentrations in a buffer containing 100 mM NaAc (pH5.5), 1 mM EDTA, 100 mM NaCl, 0.01% Brij-35 for 20 minutes at room temperature. Control reactions in the absence of inhibitor are performed in replicates of 24. The reactions are initiated by adding the substrate, acetyl-histidine-lysine-phenylalanine-lysine-amino carbamoyl coumarin, to a final concentration of 20 μM. The rate of substrate hydrolysis is measured by monitoring the increase in fluorescence at an excitation wavelength of 380 nm and an emission wavelength of 450 nm that results from cleavage of the aniline bond in the substrate by the enzyme. The apparent inhibition constants for the compounds are determined from the enzyme progress curves (Kuzmic, P., K. C. Elrod, et al., Anal Biochem 2000, 286(1), 45-50) and are then used to calculate the inhibition constants for competitive inhibitors.
as §2

Chain of Cathepsin S (P25774 115-331, species assumed): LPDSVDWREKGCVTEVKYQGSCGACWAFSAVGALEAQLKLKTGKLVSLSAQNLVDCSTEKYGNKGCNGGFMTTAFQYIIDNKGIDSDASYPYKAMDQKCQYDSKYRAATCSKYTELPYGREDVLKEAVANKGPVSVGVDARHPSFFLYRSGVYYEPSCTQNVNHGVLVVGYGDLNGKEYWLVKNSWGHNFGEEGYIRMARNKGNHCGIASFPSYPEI
Chain of Cathepsin L (P07711 114-333, species assumed): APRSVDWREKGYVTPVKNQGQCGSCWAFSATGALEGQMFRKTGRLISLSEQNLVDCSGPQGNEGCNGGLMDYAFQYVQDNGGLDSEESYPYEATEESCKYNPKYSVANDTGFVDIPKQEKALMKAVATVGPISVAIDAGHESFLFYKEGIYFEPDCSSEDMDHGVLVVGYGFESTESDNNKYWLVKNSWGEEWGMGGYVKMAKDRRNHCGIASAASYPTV

Take `COC1OC(=O)C[C@@H]1NC(=O)[C@H](CC1CCCCC1)NC(=O)c1ccc(-c2cccc(F)c2)o1` (stereo partly drawn) [Example 16, (3S)-[3-Cyclohexyl-(2S)-{[5-(3-fluoro-phenyl)-furan-2-carbonyl]-amino}propionylamino]-2-methoxy-5-oxo-tetrahydrofuran]: the “Selectivity for Cat. S over Cat. B” value on Cathepsin B is given as “+ (+, >10)”. The Ki – broadly, a dissociation constant, usually derived from enzyme kinetics or from competition with a known ligand – at Cathepsin S is under 1 µM. The “Selectivity for Cat. S over Cat. K” value on Cathepsin K is “+ (+, >10)”. The “Selectivity for Cat. S over Cat. L” value on Cathepsin L is “+ (+, >10)”.

Regarding `O=C1C[C@H](NC(=O)[C@H](CC2CCCC2)NC(=O)c2ccc(-c3cccc(C(F)(F)F)c3)o2)C(O)O1` (stereo partly drawn) [Example 23, (3S)-(3-Cyclopentyl-(2S)-{[5-(3-trifluoromethyl-phenyl)-furan-2-carbonyl]-amino}-propionylamino)-4-oxo-butyric acid], the “Selectivity for Cat. S over Cat. B” value at Cathepsin B is on record as “+++ (+++, >1000)”. Moreover, the Ki at Cathepsin S was under 0.1 µM. For the same compound, the “Selectivity for Cat. S over Cat. K” value on Cathepsin K is given as “++ (++, >100)”. At Cathepsin L, the “Selectivity for Cat. S over Cat. L” value was “+++ (+++, >1000)”.

For the compound `O=C1CC(NC(=O)C(CC2CCCC2)NC(=O)c2ccc(-c3cccc(F)c3)o2)C(OC2CCCC2)O1` [Example 26, (3S)-[3-Cyclopentyl-(2S)-{[5-(3-fluoro-phenyl)-furan-2-carbonyl]-amino}propionylamino]-2-cyclopentoxy-5-oxo-tetrahydrofuran], the “Selectivity for Cat. S over Cat. B” value at Cathepsin B was “+++ (+++, >1000)”. The Ki on Cathepsin S was under 0.1 µM. Also, the “Selectivity for Cat. S over Cat. K” value at Cathepsin K is “+ (+, >10)”. The “Selectivity for Cat. S over Cat. L” value on Cathepsin L is listed as “+++ (+++, >1000)”.
